In patent US20070056049A1, “p53 and VEGF regulate tumor growth of NOS2 expressing cancer cells” (The Govt. of the USA as represented by the Secretary of the …, priority 1998, published 2007):
“Also recorded” adds a separate entry of the source.

Assays:
[1] = system: NOS2-expressing Calu-6 cells; test: Tumor xenoplantation of NOS2-expressing Calu-6 cells in athymic nude mice; assay type: in vivo; details: 1% AG; p53 null Calu-6 cells, subcutaneous tumors; p<0.05, two-tailed Student's t-test
Text: (§1) FIG. 2a-d: Tumor probability of NOS2-expressing human carcinoma cells lines is dependent on the p53 status. 3×10^6 cells of NOS2-expressing Calu-6 and LoVo carcinoma cells, and the vector controls (BaglacZ), were inoculated into 10 athymic nude mice, respectively. NOS2-expressing LoVo cells, which have two wild-type p53 alleles, grow slower (A) and produce smaller tumors (C) than vector controls (BaglacZ). In contrast, NOS2-expressing Calu-6 cells, which lack expression of functional p53, grow faster (B) and produce larger tumors (D) than the vector controls.
(§2) A. Methods Tumor xenoplantation: Suspensions of 3×10^5 to 5×10^6 cells in a volume of 0.2 ml were injected at a single subcutaneous site into athymic nude mice previously irradiated with 350 rads. Either 10 or 20 animals were injected per experiment. A nodule was scored as a tumor when it measured 125 mm^3 or more by its largest two dimensions.
(§3) Statistical Analysis: The Kaplan-Meier survival analysis was used to calculate the statistical significance of tumor probabilities in different treatment groups. Other comparisons were carried out by the two-tailed Student's t-test. Relationships are considered statistically significant when p<0.05.

[2] = system: NOS2-expressing HT-29 colon carcinoma cells; test: Tumor xenoplantation of NOS2-expressing HT-29 colon carcinoma cells in athymic nude mice; assay type: in vivo; details: 1% AG in the drinking water; mutant p53 HT-29 cells; Kaplan-Meier analysis p=0.002
Protocol: 3×10^5 cells of NOS2 (Retro-HNOS) and β-galactosidase (BaglacZ) expressing HT-29 cells were inoculated into 40 athymic nude mice, respectively. Half of the animals in both groups received 1% AG in the drinking water. […] This effect is abolished (p=0.002) through treatment with 1% AG.
as §2, §3

[3] = system: NOS2-expressing LoVo cells; test: Tumor xenoplantation of NOS2-expressing LoVo cells in athymic nude mice; assay type: in vivo; details: wild-type p53 LoVo cells, slow-growing tumors
Text: as §1, §2, §3

[4] = system: VEGF secretion of NOS2-expressing Calu-6 cells; test: VEGF secretion into culture medium of NOS2-expressing Calu-6 cell clones (immunoprecipitation, western blot); assay type: cell-based, human; details: 2 mM L-NMA, 48 hr, 3×10^6 cells in 4 ml of medium
Protocol: FIG. 7a-b: VEGF protein concentrations are higher (4.3 and 7.1-fold) in the culture medium of NOS2-expressing Calu-6 cells clones than in the culture medium of vector controls (A) and correlate with increased VEGF mRNA expression (B). […] 3×10^6 cells were cultured in 4 ml of medium for 48 hr±2 mM L-NMA. VEGF was immunoprecipitated out of 1 ml of culture medium. The 4.4 kb VEGF mRNA was detected by northern blotting was a 522 bp ^32P-labeled cDNA (exon 1-7), and the 7.5 kb polycistronic mRNA encoding NOS2 with the full-length human NOS2 cDNA (Geller et al., Proc. Natl. Acad. Sci. U.S.A. 90:3491-3495 (1993); Tzeng et al., Proc. Nat'l Acad. Sci USA 92:11771-11775 (1995)).
NOS2 and VEGF western blot analysis: Cell lysates for western blotting were prepared by solubilization of cell pellets in RIPA butter. VEGF protein concentrations were determined as follows. Five μg of rabbit polyclonal anti-VEGF antibody (Santa Cruz Biotechnology) were added to either 1 mg of cellular protein extract or 1 ml of cell culture medium, incubated for 1 hr at 8-10° C., and then mixed with protein A-sepharose (10 mg) for 1 hr. […] After transfer to an Immunobilon-P membrane (Millipore), NOS2 and VEGF protein were detected with either a polyclonal anti-NOS2 antibody (Merck), 1:40,000 diluted, or a polyclonal anti-VEGF, 1:1000 diluted, as described (Ambs et al., Cancer Res. 58:334-341 (1998)).

Structure (SMILES)	tumor growth of NOS2-expressing Calu-6 cells [1]	tumor probability / tumor growth of NOS2-expressing HT-29 cells [2]	tumor growth of NOS2-expressing LoVo cells [3]	VEGF secretion into the culture medium [4]
N=C(N)NN [aminoguanidine]	significantly reduced the tumor growth; also recorded: inhibited; also recorded: suppressed the tumor growth	significantly reduced the tumor growth; also recorded: reverses the growth stimulatory effect of NOS2	lack of an aminoguanidine effect	
CNC(=N)NCCC[C@H](N)C(=O)O [L-NMA, NG-monomethyl-L-arginine]				reduced the VEGF secretion; also recorded: decreases VEGF secretion
